Results taken from US6409716B1, “Drug delivery” (Scimed Life Systems, Inc., priority 1989, dated 2002).

Test system: intracoronary thrombus
Assay: Local delivery of urokinase from hydrogel-coated balloon during balloon angioplasty in patients
Format: in vivo
Conditions: all 11 patients; balloon immersed in 50,000 units/ml; pressure in excess of 2 atmospheres; 1-2 inflations, 1-5 minutes
Experimental: To evaluate the efficacy of local delivery of urokinase during balloon angioplasty in treating intracoronary thrombus according to the invention, 11 patients were treated with hydrogel-coated balloons which had been immersed in a concentrated solution of urokinase (50,000 units/ml). Eight patients presented with acute myocardial infarctions, while the remaining three had unstable angina. Five patients had received intravenous thrombolytic therapy, including systemic thrombolysis. Conventional balloon angioplasty was initially performed in 9 of the 11 patients and was complicated either by acute thrombotic closure (n=7) or slow antegrade flow with the appearance of intracoronary thrombus (n=2). The remaining 2 patients had coronary stenoses with angiographic evidence of thrombus, but were not initially treated with conventional angioplasty.

urokinase
outcome of balloon dilatation with urokinase-impregnated, hydrogel-coated balloon: reversal of abrupt closure and dissolution of intracoronary thrombus
